The values that follow come from patent US20110182973A1, “POLYMERASE INHIBITORS AND THE USE THEREOF FOR THE TREATMENT OF TUMORS” (FREIE UNIVERSITAET BERLIN, priority 2007, published 2011).

The term inhibition denotes the percentage by which the read-out fell short of the control. Broadly, the IC50 is the concentration needed to halve the response being measured. The term pIC50 denotes the negative decadic logarithm of the IC50, by convention in mol/L. High values mean a small IC50, low ones a large IC50. As usually defined, the logP is a log measure of how a compound divides between an organic and an aqueous phase. Lower therefore signals a more hydrophilic compound.

The test system of one data set is primary keratinocytes. Put plainly: MTT test (viability) on primary keratinocytes (NHK). Conditions: for inhibition at 100 µM / IC50: Keratinocyte; for inhibition at 100 µM: read-out: max. inhibition; for IC50: 48 h stimulation, read-out: −lg IC50 [M] ± SEM (converted). Format: cell-based.
Experiment in data set [1]: as above
Format: cell-based. Conditions: human, primary keratinocytes (NHK); MTT test, NHK, 10^−4 M; read-out: Max. inhibition (%) (maximum decrease in viability). In general terms: Formazan colour is commonly taken as a measure of viable cells.

Data set [2] is described as follows: MTT test (viability) on HaCaT keratinocyte cell line. Format: cell-based. As to conditions: human, 10^−4 M, read-out: Max. inhibition (%) (maximum decrease in viability).
Data set [3] is described as follows: MTT test (viability) on dermal fibroblasts. As to conditions: Fibrob., 10^−4 M, read-out: Max. inhibition (%) (maximum decrease in viability). Format: cell-based.
The test system of a further data set is MCF-7. Put plainly: MTT test (viability) on breast cancer cell line MCF-7. As to conditions: Homo sapiens, MCF7, MCF-7, 10^−4 M, read-out: Max. inhibition (%) (maximum decrease in viability). Format: cell-based.
The subject of another data set is SCC-25 cells. Put plainly: MTT test (viability) on SCC-25 tumor cells. Conditions: for inhibition at 100 µM / IC50 / cytotoxicity at 100 µM: Homo sapiens; for inhibition at 100 µM: read-out: max. inhibition; for IC50: read-out: −lg IC50 [M] ± SEM (converted); for cytotoxicity at 100 µM: read-out: Max. inhibition (%) (maximum decrease in viability). Format: cell-based.

The nature of data set [4]: MTT test (viability) on colon carcinoma line HT-29. Format: cell-based. As to conditions: Hat 29, 10^−4 M.
The nature of the next data set: logP values. Format: physicochemical.
[5] abbreviates: MTT test 48 h, primary keratinocytes, inhibitionmax = 100 − E, E = activity at 10^−4 M in %.
[6] abbreviates: MTT test, primary keratinocytes.
[7] abbreviates: MTT test 48 h, SCC-25 cells, inhibitionmax = 100 − E, E = activity at 10^−4 M in %.
The mark [8] stands for this setting: MTT test, 48 h stimulation, SCC-25 cells.

“Also recorded” adds a separate entry of the source.

In the case of `C[C@@]1(CO)[C@H](O)CC[C@@]2(C)[C@H]1CC[C@H]1C[C@@H]3C[C@@]12CC[C@]3(O)CO` [Aphidicolin], the inhibition at 100 µM in the data set on primary keratinocytes (setting [5]) was 46%; in the data set with SCC-25 cells (setting [7]), 66%. Also, the IC50 was 5.62e-09 M in the data set with primary keratinocytes (setting [6]) and 5.13e-07 M in the data set with SCC-25 cells (setting [8]). The cytotoxicity came to 44% in data set [1], 86% in data set [2] and 54% in data set [3]. Also, the cytotoxicity at 100 µM is 61% in the data set on MCF-7 and 62% in the data set with SCC-25 cells (MTT test, SCC-25, 10^−4 M). In addition, in data set [4], the “Max. inhibition (%) (maximum decrease in viability)” value is on record as 70%.

For the compound `O=C(O)P(=O)(O)O` [Foscamet], the max. inhibition result is “n.d. (−13%)” in the data set on primary keratinocytes (setting [5]) and 9% in the data set with SCC-25 cells (setting [7]). The “Max. inhibition (%) (maximum decrease in viability)” value in the data set with primary keratinocytes (MTT test, NHK, 10^−4 M) was 0%; with SCC-25 cells (MTT test, SCC-25, 10^−4 M), 9%. The compound further displayed a pIC50 with SCC-25 cells (setting [8]) of 5.87 ± 0.24.

For `Cc1cn([C@H]2CC(=NO)[C@@H](CO)O2)c(=O)[nH]c1=O` [HM-1 oxime, 3′-deoxy-3′-hydroxyliminothymidine], the inhibition at 100 µM turned out to be 7% in the data set with primary keratinocytes (setting [5]) and 36% in the data set with SCC-25 cells (setting [7]). The half-maximal inhibitory concentration (IC50) in the data set on primary keratinocytes (setting [6]) is 3.09e-08 M; in the data set with SCC-25 cells (setting [8]) it was 3.72e-08 M. Also, the cytotoxicity in data set [1] is 3%; in data set [2], 20%. Further, the cytotoxicity at 100 µM with SCC-25 cells (MTT test, SCC-25, 10^−4 M) was found to be 30%.

Consider `Cc1cn([C@H]2CC(=O)[C@@H](CO)O2)c(=O)[nH]c1=O` [HM-1, 3′-Deoxy-3′-oxothymidine], for which the inhibition at 100 µM in the data set on primary keratinocytes (setting [5]) amounted to 24%; in the data set on SCC-25 cells (setting [7]), 47%. In addition, the cytotoxicity worked out at 23% in data set [1] and 16% in data set [2]. The compound further registered a logP in the data set “logP values” of -1.13. Further, in the data set on SCC-25 cells (setting [8]), the half-maximal inhibitory concentration (IC50) is 4.47e-05 M. Further, in the data set on SCC-25 cells (MTT test, SCC-25, 10^−4 M), the cytotoxicity at 100 µM worked out at 47%. Besides, the “cytotoxic / antiproliferative effect on tumor cells (SCC-25), in words” value with SCC-25 cells (SCC-25 cells, FIG. 1, FIG. 2, Table 1) is “strong cytotoxic effect; also recorded: stronger than that of the two comparative substances 5-fluorouracil and aphidicolin”. Also, the “selectivity: effect on SCC-25 tumor cells compared with keratinocytes, in words” value with SCC-25 cells (SCC-25 vs primary keratinocytes (and HaCaT)) was “stronger than that in primary keratinocytes”.

The compound `CCOC(=O)O[C@]1(C(=O)COC(=O)CC)CC[C@H]2[C@@H]3CCC4=CC(=O)C=C[C@]4(C)[C@H]3[C@@H](O)C[C@@]21C` [Prednicarbate] showed a logP in the data set “logP values” of 3.82.

`C[C@]12C=CC(=O)C=C1CC[C@@H]1[C@@H]2[C@@H](O)C[C@@]2(C)[C@H]1CC[C@]2(O)C(=O)CO` [Prednisolone]: in “logP values”, the logP was 1.69.

With `O=c1[nH]cc(F)c(=O)[nH]1` [Substance 5-FU, 5-fluorouracil], the inhibition at 100 µM with primary keratinocytes (setting [5]) was found to be 44%; in the data set with SCC-25 cells (setting [7]), 42%. Moreover, the values for the 50% inhibitory concentration (IC50) in the data set with primary keratinocytes (setting [6]) and in the data set on SCC-25 cells (setting [8]) were 1.05e-05 M and 1.05e-06 M, respectively. The values for the cytotoxicity in data set [1], in data set [2] and in data set [3] were 41%, 80% and 88%, respectively. For the same compound, the cytotoxicity at 100 µM was found to be 71% in the data set on MCF-7 and 42% in the data set on SCC-25 cells (MTT test, SCC-25, 10^−4 M). Further, the “Max. inhibition (%) (maximum decrease in viability)” value in data set [4] came out at 66%.
